# Test system: Hyperimmune antiserum
# Assay: Anti-allergic test in sensitized rats: percent inhibition of skin dye leakage (blue spot) for hyperimmune antiserum
# Format: in vivo, Sprague-Dawley JCL strain rats
# Conditions: p.o.
# Protocol: Five male Sprague-Dawley JCL strain rates weighing 290-310g. were used for each dose. The animals were sensitized by intracutaneous injection of 0.1ml. of 5 times diluted reagin-like rat antiserum at 48 hours before egg albumin at their depilated backs and were injected 0.1ml. of 4 times diluted hyperimmune rat antiserum at 4 hours before. One ml. of mixture of egg albumin 5 mg. and Evans blue 5 mg. was injected intravenously. Immediately before 0.1ml. of 0.2% histamine solution was injected intracutaneously.
# One hour after the injection of the antigen and dye, animals were sacrificed and the skin of the back was removed. The dye of blue spot was then extracted from the skin. The blue spot areas of the skin were punched out and were cut with clipper into small pieces. The small pieces per one blue spot were blended with 10 ml. of a 4:1 mixture of acetone and 2% solution of RBS-25 (Marumoto industrial Co., Ltd.) and rested for 16 hours. Five and 16 hours after, it was shaked for 30 minutes respectively. After centrifugation at 2000 rpm for 15 minutes, the optical density of the supernatant was determined at 620 mμ.
# […] The mean amount of dye of the test animals was compared with that of the control animals. The percent inhibition for each dose was calculated.
structure (smiles),measurement,setting,value
CN1CCN(C(=O)c2cc(=O)c3c(OCCOc4ccccc4)cccc3o2)CC1,inhibition % for Hyperimmune antiserum,"pretreatment 30 min., dose 125 mg./kg.",48.2%
same,inhibition % for Hyperimmune antiserum,"pretreatment 30 min., dose 250 mg./kg.",66.7%
same,inhibition % for Hyperimmune antiserum,"pretreatment 60 min., dose 250 mg./kg.",45.8%
same,inhibition % for Hyperimmune antiserum,"pretreatment 60 min., dose 500 mg./kg.",46.5%
same,inhibition % for Hyperimmune antiserum,"pretreatment 120 min., dose 125 mg./kg.",37.6%
same,inhibition % for Hyperimmune antiserum,"pretreatment 120 min., dose 250 mg./kg.",40.6%
same,inhibition % for Hyperimmune antiserum,"pretreatment 120 min., dose 500 mg./kg.",67.7%

# Source: US4001280A, “Chromone derivatives” (Fujisawa Pharmaceutical Co., Ltd., priority 1972, dated 1977)
